Reference: US6365613B1, “Fungicidal mixtures” (BASF Aktiengesellschaft, priority 1997, dated 2002)

System: Botrytis cinerea
Experiment: Activity against Botrytis cinerea on bell peppers (fruit disks, protective spray)
Format: in vivo
Conditions: single active ingredient, green bell pepper disks, 4 days at 18° C.
Experimental: Activity against Botrytis cinerea on bell peppers
Disks of green bell peppers were sprayed to runoff point with an aqueous preparation of active ingredient which had been prepared from a stock solution comprising 10% of active compound, 63% of cyclohexanone and 27% of emulsifier. 2 hours after the spray coating had dried on, the fruit disks were inoculated with a spore suspension of Botrytis cinerea containing 1.7×10^6 spores per ml of a 2% strength Biomalz solution. The inoculated fruit disks were subsequently incubated in humid chambers at 18° C. for 4 days. The Botrytis infection on the diseased fruit disks was then evaluated visually.
Evaluation was carried out by determining the infected leaf areas in percent. These percentages were converted into efficacies. The efficacy (E) was calculated as follows using Abbot's formula: […]
α corresponds to the fungal infection of the treated plants in % and β corresponds to the fungal infection of the untreated (control) plants in % An efficacy of 0 means that the infection level of the treated plants corresponds to that of the untreated control plants; an efficacy of 100 means that the treated plants were not infected.
The expected efficacies of the mixtures of the active ingredients were determined using Colby's formula [R. S. Colby, weeds 15 (1967), 20-22] and compared with the observed efficacies.
Colby's formula: E=x+y−x·y/100
E expected efficacy, expressed in % of the untreated control, when using the mixture of the active ingredients A and B at the concentrations a and b x efficacy, expressed in % of the untreated control, when using the active ingredient A at the concentration a y efficacy, expressed in % of the untreated control, when using the active ingredient B at the concentration b

| SMILES | Efficacy in % of the untreated control (6.3 ppm in the spray liquor) [%] | Efficacy in % of the untreated control (12.5 ppm in the spray liquor) [%] | Efficacy in % of the untreated control (25 ppm in the spray liquor) [%] | Efficacy in % of the untreated control (50 ppm in the spray liquor) [%] |
| --- | --- | --- | --- | --- |
| CCCCNC(=O)n1c(NC(=O)OC)nc2ccccc21 [Comp. IIa, methyl 1-(butylcarbamoyl)benzimidazol-2-ylcarbamate, reference compound] | 10 | 20 |  |  |
| COC(=O)NC(=S)Nc1ccccc1NC(=S)NC(=O)OC [Comp. IIf, dimethyl 4,4′-(o-phenylene)bis(3-thioallophanate), reference compound] |  | 0 | 0 | 20 |
| CO/N=C(/C(=O)OC)c1ccccc1COc1ccccc1C [Compound Ia] | 20 | 30 | 30 | 50 |
| CO/N=C(/C(=O)OC)c1ccccc1COc1cc(C)ccc1C [Compound Ic] |  | 50 | 80 |  |
